Key:
col5a1 = assay: RT-PCR of col5a1 mRNA isoforms after Vivo-Morpholino injection; format: in vivo, zebrafish; details: serial intra-abdominal injection, 80 ng/mg vMO
Experimental: Zebrafish qRT-PCR. RNA extraction, PCR and quantitative RT-PCR (qRT-PCR) was performed as previously described using total RNA from dissected whole VAT tissue of 10 mm zebrafish. (Rawls J F, et al. (2007), PNAS 104(18):7622-7627.) VAT and SAT were dissected from adult Ekkwill strain wild-type zebrafish and used to assess plxnd1 mRNA levels (FIG. 18(B)). Samples contained 5-8 siblings or mutants per group, and qRT-PCR was ran with three biological replicate groups, and reactions ran in triplicate.
Zebrafish were raised under normal conditions until 30-50 days post fertilisation. Fish were anesthetised in 0.67 g/L MS222 and SL measured using an eyepiece reticle. Intra-abdominal injections were then performed on a Nanoject II injector (Drummond) as previously described. (McMenamin S K, et al (2013), Endocrinology 154(4):1476-1487.) At each injection, dosage was adjusted according to body weight (mg) using the following equation: mg=−48.10+7.36*SL+0.68*(SL-8.94)^2. (McMenamin S K, et al (2013), Endocrinology 154(4):1476-1487.) Concentration of individual compounds at injection were (relative to volume/mass of fish): 80 ng/mg col5a1-ile2 vMO (5′-[…]-3′; SEQ ID NO.: 55) or col5a1-e3i3 vMO (5′-[…]-3′; SEQ ID NO.: 56) (Gene-Tools, LLC), 100 μM EDHB (Sigma) and 80 ng/mg EdU. Control animals were injected with either a standard control vMO (5′-[…]-3′; SEQ ID NO.: 57) (Gene-Tools) or 0.1% DMSO.

[1] = Turbidity assay of ECM extracted from VAT (in vitro fibrillogenesis); set-up: species or system zebrafish; details: ECM of sibling VAT, vMO injected before extraction
Source text: To assess fibrillogenesis in plxnd1 mutant VAT, ECM is extracted from zebrafish VAT, and fibril polymerization and gel formation is induced in vitro (FIG. 13). Turbidity assays are used to determine the rate and ultimate extent of fibrillogenesis. ECM was purified from dissected zebrafish VAT (˜100 VATS per tube, triplicate tubes per condition) as previously described. (Uriel S, et al. (2009), Tissue engineering. Part C, Methods 15(3):309-321.) Urea extraction was allowed to proceed for 14-21 days at 4° C. Protein concentration (˜7 mg/ml) was assessed by the Bradford assay (Thermo Scientific). […] To induce fibril polymerization and gel formation, acetic acid was added to a pH of 7. Turbidity assays were conducted as previously described using a Spectronic 20D+ spectrometer (Thermo Scientific). (Wood G C & Keech M K (1960), The Biochemical journal 75:588-598.)

Type V collagen (Col5) = assay: Col5 immunofluorescence in VAT after vMO injection; format: in vivo, zebrafish; details: endothelial cell and peri-adipocyte locations
Experimental: Immunohistochemistry was performed as previously described (Kanther M, et al. (2011), Gastroenterology 141(1):197-207.) Immunohistochemistry was conducted with antibodies to Type V collagen (Col5) (Rockland, #600-401-107S), Laminin (Sigma, #L-9393), WCL15 (Romano N, et al. (1998), Anatomy and embryology 198(1):31-41; van der Sar A M, et al. (2004), Trends in microbiology 12(10):451-457), and Alexa 568 (Invitrogen, #A-1 1011). Transmission electron microscopy was carried out as described previously. (Flynn E J, et al. (2009), Journal of lipid research 50(8):1641-1652.) Whole 10-12 mm SL fish were processed for paraffin sectioning and Masson's trichrome, combined Masson's and Elastin, periodic acid Schiff (PAS) and Alcian Blue stains. (Sabaliauskas N A, et al. (2006), Methods 39(3):246-254.)
Zebrafish were raised under normal conditions until 30-50 days post fertilisation. Fish were anesthetised in 0.67 g/L MS222 and SL measured using an eyepiece reticle. Intra-abdominal injections were then performed on a Nanoject II injector (Drummond) as previously described. (McMenamin S K, et al (2013), Endocrinology 154(4):1476-1487.) At each injection, dosage was adjusted according to body weight (mg) using the following equation: mg=−48.10+7.36*SL+0.68*(SL-8.94)^2. […]

Row | Substance | splicing of col5a1 (RT-PCR, mRNA isoform) (col5a1) | in vitro fibrillogenesis [1] | Col5 protein levels (Col5 reactivity) (Type V collagen (Col5))
1 | col5a1-e3i3 vMO: Vivo-Morpholino 5′-GAGTTCCTACTTACCTCAAACACCT-3′ (SEQ ID NO.: 56) targeting zebrafish col5a1 exon 3-intron 3 boundary (all phosphorodiamidate morpholino (PMO); Vivo-Morpholino, delivery moiety not given here, further chemistry not fully specified) | skipping of exon 3 |  | 
2 | col5a1-ile2 vMO: Vivo-Morpholino 5′-GAAACATGGATGCTACAGAGAGAGA-3′ (SEQ ID NO.: 55) targeting zebrafish col5a1 intron 1-exon 2 boundary (all phosphorodiamidate morpholino (PMO); Vivo-Morpholino, delivery moiety not given here, further chemistry not fully specified) | inclusion of part of intron 1 | did not affect | significantly reduced

Reference: patent US11921120B2, “Compositions and methods for identifying and modulating metabolic health” (Duke University, priority 2015, dated 2024)
